Test results as given in patent US11555012B2 (Nimbus Artemis, Inc., priority 2018, dated 2023).

Legend:
ACL [1] = target: T1, ACL (Homo sapiens (Human), UniProt P53396); experiment: ACLY-MDH Coupled Assay
Target sequence in this assay (P53396 whole entry, species assumed): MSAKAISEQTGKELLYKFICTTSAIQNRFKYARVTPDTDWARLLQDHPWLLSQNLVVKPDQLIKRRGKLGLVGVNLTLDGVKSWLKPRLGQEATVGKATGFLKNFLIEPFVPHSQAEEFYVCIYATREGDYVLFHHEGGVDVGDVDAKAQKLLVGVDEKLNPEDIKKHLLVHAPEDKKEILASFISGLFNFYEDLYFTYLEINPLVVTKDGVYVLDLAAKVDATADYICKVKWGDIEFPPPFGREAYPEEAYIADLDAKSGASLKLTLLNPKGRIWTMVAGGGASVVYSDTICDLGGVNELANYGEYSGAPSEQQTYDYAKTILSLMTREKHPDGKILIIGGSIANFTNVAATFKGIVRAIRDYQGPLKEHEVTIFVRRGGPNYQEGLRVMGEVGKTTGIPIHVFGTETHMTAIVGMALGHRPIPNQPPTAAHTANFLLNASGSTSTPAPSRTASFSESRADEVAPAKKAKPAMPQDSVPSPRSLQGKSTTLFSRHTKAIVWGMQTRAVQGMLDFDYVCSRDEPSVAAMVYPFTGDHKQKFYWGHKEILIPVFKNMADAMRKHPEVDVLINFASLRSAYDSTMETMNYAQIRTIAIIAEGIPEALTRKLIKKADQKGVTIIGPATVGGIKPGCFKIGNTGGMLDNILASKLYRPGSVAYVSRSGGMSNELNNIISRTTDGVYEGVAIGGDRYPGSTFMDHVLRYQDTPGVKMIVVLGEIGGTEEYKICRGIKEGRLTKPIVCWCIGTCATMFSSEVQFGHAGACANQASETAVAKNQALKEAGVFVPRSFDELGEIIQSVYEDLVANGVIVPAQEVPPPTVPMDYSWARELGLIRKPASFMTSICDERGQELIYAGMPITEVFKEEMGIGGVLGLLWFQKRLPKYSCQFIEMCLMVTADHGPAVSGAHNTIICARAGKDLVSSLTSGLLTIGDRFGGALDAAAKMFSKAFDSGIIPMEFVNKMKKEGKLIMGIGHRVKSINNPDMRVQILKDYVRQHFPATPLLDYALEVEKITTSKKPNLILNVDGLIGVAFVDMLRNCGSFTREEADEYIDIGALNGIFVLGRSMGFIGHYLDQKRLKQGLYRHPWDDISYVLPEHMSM
Description: Compounds of the present invention were evaluated in an ACLY Coupled Assay.
The assay protocol for the Coupled Assay (below) was followed:
b) Add 1 μL cpds to 96 assay plate, Test cpd conc: 100/30/10 μM top dose, 3 folds dilution, 10+0+control (control: buffer without ACL+DMSO) points, 1000 rpm for 1 min, incubation at 25° C. for 60 min

ACL [2] = target: T1, ACL; experiment: ADP-Glo Assay
Target sequence in this assay (P53396 other isoform, or with tags, fused parts or gaps isoform P53396-2): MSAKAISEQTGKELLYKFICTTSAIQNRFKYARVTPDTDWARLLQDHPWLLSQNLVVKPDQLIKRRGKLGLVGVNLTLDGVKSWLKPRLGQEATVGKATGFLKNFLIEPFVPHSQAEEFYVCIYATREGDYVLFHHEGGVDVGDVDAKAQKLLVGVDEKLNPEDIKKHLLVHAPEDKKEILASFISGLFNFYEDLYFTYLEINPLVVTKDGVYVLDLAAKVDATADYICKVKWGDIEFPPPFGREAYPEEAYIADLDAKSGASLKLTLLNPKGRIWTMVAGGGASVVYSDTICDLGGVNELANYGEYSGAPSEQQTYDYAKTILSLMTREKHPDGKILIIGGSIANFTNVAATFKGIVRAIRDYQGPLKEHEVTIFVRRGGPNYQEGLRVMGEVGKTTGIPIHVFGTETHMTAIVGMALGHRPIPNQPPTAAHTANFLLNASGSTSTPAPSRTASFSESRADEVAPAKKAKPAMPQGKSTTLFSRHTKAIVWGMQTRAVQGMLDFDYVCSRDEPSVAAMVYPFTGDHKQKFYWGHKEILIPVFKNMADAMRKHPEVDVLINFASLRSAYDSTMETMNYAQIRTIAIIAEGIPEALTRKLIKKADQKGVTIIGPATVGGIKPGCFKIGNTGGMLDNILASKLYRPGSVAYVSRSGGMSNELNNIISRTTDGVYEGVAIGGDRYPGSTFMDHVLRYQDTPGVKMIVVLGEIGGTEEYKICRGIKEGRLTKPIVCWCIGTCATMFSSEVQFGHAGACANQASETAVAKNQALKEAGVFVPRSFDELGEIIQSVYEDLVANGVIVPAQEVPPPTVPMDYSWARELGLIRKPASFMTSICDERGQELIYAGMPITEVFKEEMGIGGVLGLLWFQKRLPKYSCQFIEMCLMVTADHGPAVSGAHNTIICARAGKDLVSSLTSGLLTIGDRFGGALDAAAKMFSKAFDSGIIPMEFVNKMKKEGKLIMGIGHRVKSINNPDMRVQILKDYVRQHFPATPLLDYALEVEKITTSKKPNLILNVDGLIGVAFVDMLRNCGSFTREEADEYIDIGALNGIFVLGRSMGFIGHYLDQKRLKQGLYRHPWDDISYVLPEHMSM

[3] = read-out: ACL-MDH Coupled Assay (IC50), 8 nM ACL, 60 μM CoA Na2, 85 μM Citrate, 250 μM ATP, 250 μM NADH
[4] = read-out: ACL-ADP-Glo (IC50), 3 nM ACL, 15 μM ATP, 3 μM CoA, 300 μM Citrate

Row | SMILES | IC50 (ACL [1]) | IC50 (ACL [2]) | IC50 (ACL [1]; [3]) | IC50 (ACL [2]; [4])
1 | O=C(c1cncs1)N(c1ccc(Cl)cc1)S(=O)(=O)c1cc(Br)cc(Cl)c1O [I-511, N-((5-bromo-3-chloro-2-hydroxyphenyl)sulfonyl)-N-(4-chlorophenyl)thiazole-5-carboxamide] | 500 to 30000 nM | 500 to 20000 nM | – | –
2 | CNC(=O)c1cc(Cl)c(O)c(S(=O)(=O)Nc2cc(-c3ccccc3)ccc2OC)c1 [I-66, 3-chloro-4-hydroxy-5-[(2-methoxy-5-phenylphenyl)sulfamoyl]-N-methylbenzamide] | 500 to 30000 nM | 50 to 500 nM | – | –
3 | CC(C)C(=O)Oc1c(Cl)cc(C(=O)N2CCC2)cc1S(=O)(=O)Nc1cc(-c2ccccc2)c(F)cc1F [I-158, 4-(azetidine-1-carbonyl)-2-chloro-6-([4,6-difluoro-[1,1-biphenyl]-3-yl]sulfamoyl)phenyl 2-methylpropanoate] | 50 to 500 nM | 50 to 500 nM | – | –
4 | O=C(O)c1ccc(-c2ccccc2)cc1NS(=O)(=O)N1CCC2(CCCCC2)CC1 [I-340] | 500 to 30000 nM | 500 to 20000 nM | – | –
5 | COc1ccc(-c2ccccc2)cc1NS(=O)(=O)c1cc(C(=O)N(C)C)cc(Cl)c1O [I-56, 3-chloro-4-hydroxy-5-[(2-methoxy-5-phenylphenyl)sulfamoyl]-N,N-dimethylbenzamide] | 50 to 500 nM | 50 to 500 nM | – | –
6 | O=C(c1cc(Cl)c(O)c(S(=O)(=O)Nc2cc(C3CC3)c(F)cc2F)c1)N1CC(F)C1 [I-194, 3-chloro-N-(5-cyclopropyl-2,4-difluorophenyl)-5-(3-fluoroazetidine-1-carbonyl)-2-hydroxybenzene-1-sulfonamide] | 500 to 30000 nM | 50 to 500 nM | – | –
7 | O=C(O)c1ccc(-c2cccs2)cc1NS(=O)(=O)c1cc(Cl)cc(C(F)(F)F)c1 [I-366, 2-((3-chloro-5-(trifluoromethyl)phenyl)sulfonamido)-4-(thiophen-2-yl)benzoic Acid] | 50 to 500 nM | 50 to 500 nM | – | –
8 | COc1cc(Br)ccc1NS(=O)(=O)c1cc(Cl)cc(Cl)c1O [I-11, N-(4-bromo-2-methoxyphenyl)-3,5-dichloro-2-hydroxybenzenesulfonamide] | 500 to 30000 nM | 500 to 20000 nM | – | –
9 | COc1ccc(-c2cccnc2)cc1NS(=O)(=O)c1cc(C(=O)N2CCC2)cc(Cl)c1O [I-144, 5-(azetidine-1-carbonyl)-3-chloro-2-hydroxy-N-[2-methoxy-5-(pyridin-3-yl)phenyl]benzene-1-sulfonamide] | 500 to 30000 nM | 50 to 500 nM | – | –
10 | COc1ccc(-c2ccccc2)cc1NS(=O)(=O)c1cc(C(=O)N2CC(N)C2)cc(Cl)c1O [I-276, 5-(3-aminoazetidine-1-carbonyl)-3-chloro-2-hydroxy-N-[4-methoxy-[1,1-biphenyl]-3-yl]benzene-1-sulfonamide] | 50 to 500 nM | – | – | < 50 nM
11 | O=C(O)c1ccc(-c2ccccc2)cc1NS(=O)(=O)c1cc(Br)cc(C(F)(F)F)c1 [I-306, 3-((3-bromo-5-(trifluoromethyl)phenyl)sulfonamido)-[1,1′-biphenyl]-4-carboxylic acid] | 50 to 500 nM | 50 to 500 nM | – | –
12 | COc1ccc(-c2cccnc2)cc1NS(=O)(=O)c1cc(Cl)cc(Cl)c1O [I-7, 3,5-dichloro-2-hydroxy-N-(2-methoxy-5-(pyridin-3-yl)phenyl)benzenesulfonamide] | 500 to 30000 nM | 500 to 20000 nM | – | –
13 | O=c1[nH]cc(Cl)cc1S(=O)(=O)Nc1cc(-c2cc3ccccc3s2)ccc1F [I-367, N-(5-(benzo[b]thiophen-2-yl)-2-fluorophenyl)-5-chloro-2-oxo-1,2-dihydropyridine-3-sulfonamide] | 500 to 30000 nM | 500 to 20000 nM | – | –
14 | O=C(O)c1ncc(-c2ccccc2)cc1NS(=O)(=O)c1cc(Cl)cc(Cl)c1 [I-243, 3-((3,5-dichlorophenyl)sulfonamido)-5-phenylpicolinic Acid] | 500 to 30000 nM | 500 to 20000 nM | – | –
15 | Nc1ccc(-c2ccccc2)cc1NS(=O)(=O)c1cc(Cl)cc(Br)c1O [I-53, N-(2-amino-5-phenylphenyl)-3-bromo-5-chloro-2-hydroxybenzene-1-sulfonamide] | 500 to 30000 nM | 500 to 20000 nM | – | –
16 | CC(C)n1c(NS(=O)(=O)c2cc(Cl)cc(Cl)c2O)c(-c2ccc(F)cc2)c2ccccc21 [I-134, 3,5-dichloro-N-(3-(4-fluorophenyl)-1-isopropyl-1H-indol-2-yl)-2-hydroxybenzenesulfonamide] | 500 to 30000 nM | 500 to 20000 nM | – | –
17 | O=C(O)c1ccc(-c2ccccc2)cc1NS(=O)(=O)c1ccnn1CCc1ccccc1 [I-330] | 500 to 30000 nM | 500 to 20000 nM | – | –
18 | CCN(c1ccc(Cl)cc1)S(=O)(=O)c1cc(Br)cc(Cl)c1O [I-513, 5-bromo-3-chloro-N-(4-chlorophenyl)-N-ethyl-2-hydroxybenzene Sulfonamide] | 500 to 30000 nM | 500 to 20000 nM | – | –
19 | COc1ccc(-c2ccccc2)cc1NS(=O)(=O)c1cc(C(=O)O)cc(Cl)c1O [I-2, 3-chloro-4-hydroxy-5-(N-(4-methoxy-[1,1′-biphenyl]-3-yl)sulfamoyl)benzoic Acid] | 500 to 30000 nM | 500 to 20000 nM | – | –
20 | CC(=O)NC1CN(C(=O)c2cc(Cl)c(O)c(S(=O)(=O)Nc3cc(-c4ccccc4)c(F)cc3F)c2)C1 [I-162, N-[1-[3-chloro-5-([4,6-difluoro-[1,1-biphenyl]-3-yl]sulfamoyl)-4-hydroxybenzoyl]azetidin-3-yl]acetamide] | 500 to 30000 nM | 50 to 500 nM | – | –
21 | COc1ccc(-c2ccccc2)cc1NS(=O)(=O)c1cc(C(=O)NCCN)cc(Cl)c1O [I-64, N-(2-aminoethyl)-3-chloro-4-hydroxy-5-[(2-methoxy-5-phenylphenyl)sulfamoyl]benzamide] | 500 to 30000 nM | 500 to 20000 nM | – | –
22 | CCOC(=O)c1cc(Cl)c(O)c(S(=O)(=O)Nc2cc(-c3cc4ccccc4s3)c(F)cc2F)c1 [I-505, ethyl 3-(N-(5-(benzo[b]thiophen-2-yl)-2,4-difluorophenyl)sulfamoyl)-5-chloro-4-hydroxybenzoate] | – | – | < 50 nM | < 50 nM

Next, values leading:

Row | IC50 (ACL [1]) | IC50 (ACL [2]) | IC50 (ACL [1]; [3]) | IC50 (ACL [2]; [4]) | SMILES
23 | 500 to 30000 nM | 500 to 20000 nM | – | – | O=C(O)COc1c(Br)cc(C(=O)N2CCC2)cc1S(=O)(=O)Nc1cc(-c2ccccc2)ccc1F [I-192, 2-(4-(azetidine-1-carbonyl)-2-bromo-6-(N-(4-fluoro-[1,1′-biphenyl]-3-yl)sulfamoyl)phenoxy)acetic Acid]
24 | 500 to 30000 nM | 500 to 20000 nM | – | – | N#Cc1cc(Cl)cc(S(=O)(=O)Nc2cc(-c3ccccc3)ccc2F)c1O [I-29, 5-chloro-3-cyano-N-(2-fluoro-5-phenylphenyl)-2-hydroxybenzene-1-sulfonamide]
25 | 500 to 30000 nM | 50 to 500 nM | – | – | CO[C@@H]1CCN(C(=O)c2cc(Cl)c(O)c(S(=O)(=O)Nc3cc(-c4ccccc4)ccc3F)c2)C1 [I-141, 3-chloro-N-[4-fluoro-[1,1-biphenyl]-3-yl]-2-hydroxy-5-[(3R)-3-methoxypyrrolidine-1-carbonyl]benzene-1-sulfonamide]
26 | – | – | < 50 nM | < 50 nM | COc1ccc(-c2cc3ccccc3s2)cc1NS(=O)(=O)c1cc(C(=O)N2CCC2)cc(Cl)c1O [I-503, 5-(azetidine-1-carbonyl)-N-(5-(benzo[b]thiophen-2-yl)-2-methoxyphenyl)-3-chloro-2-hydroxybenzenesulfonamide]
27 | 500 to 30000 nM | 50 to 500 nM | – | – | O=c1[nH]cc(C(F)(F)F)cc1S(=O)(=O)Nc1cc(-c2ccccc2)ccc1F [I-355, N-[4-fluoro-[1,1-biphenyl]-3-yl]-2-oxo-5-(trifluoromethyl)-1,2-dihydropyridine-3-sulfonamide]
28 | 500 to 30000 nM | 500 to 20000 nM | – | – | O=S(=O)(Nc1cc(-c2ccccc2)c(F)cc1F)c1cc(-c2nnn[nH]2)cc(Cl)c1O [I-269, 3-chloro-N-[4,6-difluoro-[1,1-biphenyl]-3-yl]-2-hydroxy-5-(1H-1,2,3,4-tetrazol-5-yl)benzene-1-sulfonamide]
29 | 500 to 30000 nM | 500 to 20000 nM | – | – | O=C(O)COc1c(Br)cc(Cl)cc1S(=O)(=O)Nc1cc(-c2ccccc2)ccc1F [I-46, 2-(2-bromo-4-chloro-6-(N-(4-fluoro-[1,1′-biphenyl]-3-yl)sulfamoyl)phenoxy)acetic Acid]
30 | – | – | < 50 nM | < 50 nM | O=C(c1cc(Cl)c(O)c(S(=O)(=O)Nc2cc(-c3ccccc3)c(F)cc2F)c1)N1CC(F)C1 [I-130, 3-chloro-N-(4,6-difluoro-[1,1′-biphenyl]-3-yl)-5-(3-fluoroazetidine-1-carbonyl)-2-hydroxybenzenesulfonamide]
31 | 500 to 30000 nM | 50 to 500 nM | – | – | COC(=O)c1cc(Cl)c(O)c(S(=O)(=O)Nc2ccc(F)cc2F)c1 [I-74, Methyl 3-chloro-5-(N-(2,4-difluorophenyl)sulfamoyl)-4-hydroxybenzoate]
32 | 500 to 30000 nM | 500 to 20000 nM | – | – | O=C(O)c1cc(-c2ccccc2)sc1NS(=O)(=O)c1cc(Cl)cc(Cl)c1 [I-242, 2-((3,5-dichlorophenyl)sulfonamido)-5-phenylthiophene-3-carboxylic Acid]
33 | 500 to 30000 nM | 50 to 500 nM | – | – | O=C(O)c1cc(Cl)c(O)c(S(=O)(=O)Nc2cc(-c3cc4ccccc4s3)c(F)cc2OC(F)(F)F)c1 [I-508, 3-(N-(5-(benzo[b]thiophen-2-yl)-4-fluoro-2-(trifluoromethoxy)phenyl)sulfamoyl)-5-chloro-4-hydroxybenzoic Acid]
34 | 500 to 30000 nM | 500 to 20000 nM | – | – | O=C(O)COc1c(Cl)cc(Cl)cc1S(=O)(=O)Nc1cc(-c2ccccc2)ccc1F [I-143]
35 | 500 to 30000 nM | 500 to 20000 nM | – | – | O=C(O)c1ccc(-c2ccccc2)cc1NS(=O)(=O)Cc1ccc(C(F)(F)F)cc1 [I-299, 3-(((4-(trifluoromethyl)phenyl)methyl)sulfonamido)-[1,1′-biphenyl]-4-carboxylic acid]
36 | 500 to 30000 nM | 50 to 500 nM | – | – | O=C(c1cc(Cl)c(O)c(S(=O)(=O)Nc2cc(-c3ccncc3)ccc2F)c1)N1CCC1 [I-202, 5-(azetidine-1-carbonyl)-3-chloro-N-[2-fluoro-5-(pyridin-4-yl)phenyl]-2-hydroxybenzene-1-sulfonamide]
